Data taken from patent publication US20260232679A1, “PHARMACEUTICAL COMPOSITION FOR TREATING TUMORS” (Eisai R&D Management Co., Ltd., priority 2023, published 2026).

Experiments:
[1] = test system: human colorectal cancer cell line Colo205 cells; test: Antitumor effect in transplantation model nude mouse with human colorectal cancer cell line Colo205 cells (Example 1); assay type: in vivo; settings: 14 days; for enhancement in antitumor effect (tumor volume) by combined use with Trametinib: combined with Trametinib 0.3 mg/kg p.o., formula (I) 12.5 or 25 mg/kg p.o., ICG001 100 mg/kg i.p., FIGS. 1-3
Procedure: Human colorectal cancer-derived cell line Colo205 cells (supplied by ATCC) were suspended in Hanks' Balanced Salt Solution (HBSS) (manufactured by FUJIFILM Wako Chemicals) at 5× 10^7 cells/mL. 0.1 mL of the obtained cell suspension was transplanted subcutaneously to a right frank of 6-week nude mice (CAnN.Cg-Foxn1 nu/CrlCrlj, manufactured by Charles River Laboratories Japan, Inc.). Ten days after the transplantation, a major axis and a minor axis of a tumor generated in each mouse were measured with a digimatic caliper (manufactured by Mitutoyo Corp.), and the mice were divided into groups each including six mice such that an average tumor volume was approximately equal. The tumor volume was calculated according to the following formula.
From ten days after the transplantation, the compound represented by formula (I) (12.5 mg/kg or 25 mg/kg, once a day, 14 days, orally administered), Trametinib (0.3 mg/kg, once a day, 14 days, orally administered), and ICG001 (100 mg/kg, once a day, 14 days, intraperitoneally administered) were administered singly or in combination to the mice in a single administration group or a combined administration group. Note that any one of the above agents was not administered to a control group.
Note that, at the time of administration, the compound represented by formula (I) was dissolved in 0.1 M hydrochloric acid at 1.25 mg/mL or 2.50 mg/mL, Trametinib (manufactured by Amadis Chemical) was dissolved in distilled water (pH 8.0) (manufactured by Otsuka Pharmaceutical Co., Ltd.) containing 0.5 w/v % of hydroxypropyl methyl cellulose (manufactured by FUJIFILM Wako Chemicals) and 0.2 w/v % of Tween80 (manufactured by Sigma) at 0.03 mg/mL, and ICG001 (manufactured by WuXi App Tec) was dissolved in physiological saline (manufactured by Otsuka Pharmaceutical Co., Ltd.) containing 3.5 w/v % of dimethylsulfoxide (manufactured by Wako Pure Chemical Industries, Ltd.) and 6.5 w/v % of Tween80 at 10 mg/mL.
The administration start day was defined as the first day, and a major axis and a minor axis of a tumor generated in each mouse were measured on the fifth day, the eighth day, the twelfth day, and the fifteenth day, and a tumor volume was calculated by a similar method to the above-described method. FIG. 1 illustrates a transition of the tumor volume in a case where 12.5 mg/kg of the compound represented by formula (I) and 0.3 mg/kg of Trametinib were administered singly or in combination. FIG. 2 illustrates a transition of the tumor volume in a case where 25.0 mg/kg of the compound represented by formula (I) and 0.3 mg/kg of Trametinib were administered singly or in combination. FIG. 3 illustrates a transition of the tumor volume in a case where 100 mg/kg of ICG001 and 0.3 mg/kg of Trametinib were administered singly or in combination. […]

[2] = test system: human colorectal cancer cell line HT-29 (BRAF V600E-mutant); settings: HT-29 subcutaneous mouse model, cited from earlier work
[3] = test system: patient-derived colorectal cancer organoid; settings: PDX model mouse, ICG001 + Trametinib; cited from earlier work
[4] = test system: human colorectal cancer cell line SW1463 cells; test: Antitumor effect in transplantation model nude mouse with human colorectal cancer cell line SW1463 cells (Example 2); assay type: in vivo; settings: formula (I) 25.0 mg/kg + Trametinib 0.3 mg/kg + Adagrasib 10 mg/kg, p.o. once a day, 14 days
Procedure: (§1) The tumor volume was calculated according to the following formula.

[5] = test system: human colorectal cancer cell line Colo205 cells; test: Antitumor effect in transplantation model nude mouse with human colorectal cancer cell line Colo205 cells (Example 3); assay type: in vivo; settings: p.o. once a day, 14 days
Procedure: as §1

[6] = test system: human non-small cell lung cancer cell line NCI-H358 cells; test: Antitumor effect in transplantation model nude mouse with human non-small cell lung cancer cell line NCI-H358 cells (Example 4); assay type: in vivo; settings: p.o. once a day, 14 days
Procedure: as §1

[7] = test system: human melanoma cell line A375 cells; test: Antitumor effect in transplantation model nude mouse with human melanoma cell line A375 cells (Example 5); assay type: in vivo; settings: p.o. once a day, 14 days
Procedure: as §1

[8] = formula (I) 25 mg/kg + Trametinib 0.3 mg/kg, FIG. 7
[9] = formula (I) 25.0 mg/kg + Trametinib 0.3 mg/kg + Adagrasib 3 mg/kg, FIG. 12
[10] = formula (I) 25 mg/kg + Trametinib 0.3 mg/kg, FIG. 10
[11] = formula (I) 25 mg/kg + Trametinib 0.3 mg/kg, FIG. 13

Structure (SMILES): O=C1[C@H](Cc2ccc(O)cc2)N2C(=O)CCN(C(=O)NCc3ccccc3)[C@H]2CN1Cc1cccc2ccccc12 [ICG001]
- enhancement in antitumor effect (tumor volume) by combined use with Trametinib ([1]; once a day): remarkable enhancement in antitumor effect was not observed
- antitumor effect, in combination with both Vemurafenib and Trametinib compared to the single administration ([2]; ICG001 + Vemurafenib + Trametinib): antitumor effect is enhanced
- antitumor effect, in combination with Vemurafenib compared to the single administration ([2]; ICG001 + Vemurafenib): antitumor effect is enhanced
- antitumor effect, in combination with Trametinib compared to the single administration [3]: antitumor effect is enhanced

Structure (SMILES): C=CCN1CC(=O)N2[C@@H](Cc3ccc(O)cc3F)C(=O)N(Cc3cccc(N4CC(N5CCN(CC)CC5)C4)n3)C[C@@H]2N1C(=O)NCc1ccccc1 [compound represented by formula (I), (6S,9aS)—N-benzyl-8-({6-[3-(4-ethylpiperazin-1-yl)azetidin-1-yl]pyridin-2-yl}methyl)-6-(2-fluoro-4-hydroxybenzyl)-4,7-dioxo-2-(prop-2-en-1-yl)hexahydro-2H-pyrazino[2,1-c][1,2,4]triazine-1(6H)-carboxamide]
- enhancement in antitumor effect (tumor volume) by combined use with Trametinib ([1]; once a day): remarkable enhancement in antitumor effect
- tumor proliferation, combined use with Trametinib compared with formula (I) or Trametinib administered singly ([1]; formula (I) 12.5 or 25 mg/kg p.o. + Trametinib 0.3 mg/kg p.o., once a day, FIGS. 1 and 2): inhibited tumor proliferation in a statistically significant manner
- tumor proliferation, combined administration with Trametinib compared with combined administration of ICG001 and Trametinib ([1]; formula (I) 12.5 or 25 mg/kg p.o. + Trametinib 0.3 mg/kg vs ICG001 100 mg/kg i.p. + Trametinib 0.3 mg/kg, FIG. 4): inhibited tumor proliferation in a statistically significant manner
- tumor proliferation, three-agent combination with Trametinib and Adagrasib compared with formula (I) singly or Trametinib + Adagrasib ([4]; FIG. 5): inhibited tumor proliferation in a statistically significant manner
- tumor proliferation, three-agent combination with Trametinib and Adagrasib compared with Adagrasib singly or formula (I) + Trametinib ([4]; FIG. 6): inhibited tumor proliferation in a statistically significant manner
- tumor proliferation, three-agent combination with Trametinib and Dabrafenib compared with two-agent Trametinib + Dabrafenib ([5]; formula (I) 25.0 mg/kg + Trametinib 0.3 mg/kg + Dabrafenib 30 mg/kg, FIG. 8): inhibited tumor proliferation in a statistically significant manner
- tumor proliferation, three-agent combination with Trametinib and Dabrafenib compared with two-agent formula (I) + Trametinib ([5]; formula (I) 25.0 mg/kg + Trametinib 0.3 mg/kg + Dabrafenib 30 mg/kg, FIG. 9): inhibited tumor proliferation in a statistically significant manner
- enhancement in antitumor effect (tumor volume) by combined use with Trametinib [5, 8]: remarkable enhancement in antitumor effect
- tumor proliferation, combined use with Trametinib compared with formula (I) or Trametinib administered singly [5, 8]: inhibited tumor proliferation in a statistically significant manner
- tumor proliferation, three-agent combination with Trametinib and Adagrasib compared with formula (I) singly or Trametinib + Adagrasib ([6]; formula (I) 25.0 mg/kg + Trametinib 0.3 mg/kg + Adagrasib 3 mg/kg, FIG. 11): inhibited tumor proliferation in a statistically significant manner
- antitumor effect, three-agent combination with Trametinib and Adagrasib compared with two-agent formula (I) + Trametinib [6, 9]: enhancement tendency
- tumor proliferation, three-agent combination with Trametinib and Adagrasib compared with Adagrasib singly [6, 9]: inhibited tumor proliferation in a statistically significant manner
- antitumor effect, combined use with Trametinib compared with formula (I) or Trametinib administered singly [6, 10]: tendency to enhance the antitumor effect
- enhancement in antitumor effect (tumor volume) by combined use with Trametinib [6, 10]: remarkable enhancement in antitumor effect
- tumor proliferation, three-agent combination with Trametinib and Dabrafenib compared with formula (I) singly or Trametinib + Dabrafenib ([7]; formula (I) 25.0 mg/kg + Trametinib 0.3 mg/kg + Dabrafenib 30 mg/kg, FIG. 14): inhibited tumor proliferation in a statistically significant manner
- tumor proliferation, three-agent combination with Trametinib and Dabrafenib compared with Dabrafenib singly or formula (I) + Trametinib ([7]; formula (I) 25.0 mg/kg + Trametinib 0.3 mg/kg + Dabrafenib 30 mg/kg, FIG. 15): inhibited tumor proliferation in a statistically significant manner
- enhancement in antitumor effect (tumor volume) by combined use with Trametinib [7, 11]: remarkable enhancement in antitumor effect
- tumor proliferation, combined use with Trametinib compared with formula (I) or Trametinib administered singly [7, 11]: inhibited tumor proliferation in a statistically significant manner
